Results as given in patent US10463688B2, “Nylon-3 polymers active against Clostridium difficile” (priority 2015, dated 2019).
Converted amounts (≈) assume the structure as drawn.

Tests used:
[1] = system: C. difficile spores (630Δerm strain); assay: Viability of spores recovered from OIC assays (spore outplating), strain 630Δerm; type: cell-based, Clostridium difficile; details: CFU post-assay/initial CFU
Procedure: Experiments were conducted to determine whether any spores fail to germinate under the conditions of the OIC measurement but remain viable for subsequent germination and outgrowth. Spores were incubated for 24 h in the presence of germinant (taurocholate) and one of the polymers or other agents at multiple concentrations above the OIC. These solutions were then diluted 10 to 100-fold into sterile PBS, and further diluted upon plating onto BHIS agar medium containing germinant to achieve concentrations below the OIC of the relevant antimicrobial agent. Spore survival was calculated as the percentage of colony-forming units retrieved on outgrowth plates relative to the initial spore inoculum (100%).
Samples were diluted and plated onto BHIS medium containing 0.1% taurocholate and enumerated following incubation for at least 24 h at 37° C. Spore survival was calculated as the percentage of CFU post-assay/initial CFU.

[2] = system: C. difficile spores (R20291 strain); details: MH broth with taurocholate, 24 h at 37° C.
[3] = system: C. difficile spores (630Δerm strain); details: 630Δerm spores; MH broth with taurocholate, 24 h at 37° C.
[4] = system: human red blood cells (hRBCs)
[5] = system: C. difficile spores (R20291 strain); assay: Viability of spores recovered from OIC assays (spore outplating), strain R20291; details: for R20291 Mean Spore Viability: CFU post-assay/initial CFU
[6] = system: C. difficile spores (R20291 strain); assay: microbe, parasite or virus in culture; details: Clostridioides difficile, 24 h, read-out: OIC, minimum inhibition concentration for spore outgrowth
[7] = system: C. difficile spores (630Δerm strain); assay: microbe, parasite or virus in culture; details: Clostridioides difficile, 24 h, read-out: OIC, minimum inhibition concentration for spore outgrowth
[8] = Clostridioides difficile, read-out: R20291 Mean Spore Viability

CC[C@H](C)[C@H](NC(=O)[C@H](CCCCN)NC(=O)[C@H](CCC(=O)O)NC(=O)[C@H](CCCCN)NC(=O)[C@H](CO)NC(=O)[C@H](CCCCN)NC(=O)[C@H](CCCNC(=N)N)NC(=O)[C@H](Cc1ccccc1)NC(=O)[C@H](Cc1ccccc1)NC(=O)[C@H](CC(=O)O)NC(=O)CNC(=O)[C@H](CC(C)C)NC(=O)[C@@H](N)CC(C)C)C(=O)NCC(=O)N[C@@H](CCCCN)C(=O)N[C@@H](CCC(=O)O)C(=O)N[C@@H](Cc1ccccc1)C(=O)N[C@@H](CCCCN)C(=O)N[C@@H](CCCNC(=N)N)C(=O)N[C@H](C(=O)N[C@H](C(=O)N[C@@H](CCC(N)=O)C(=O)N[C@@H](CCCNC(=N)N)C(=O)N[C@H](C(=O)N[C@@H](CCCCN)C(=O)N[C@@H](CC(=O)O)C(=O)N[C@@H](Cc1ccccc1)C(=O)N[C@@H](CC(C)C)C(=O)N[C@@H](CCCNC(=N)N)C(=O)N[C@@H](CC(N)=O)C(=O)N[C@@H](CC(C)C)C(=O)N[C@H](C(=O)N1CCC[C@H]1C(=O)N[C@@H](CCCNC(=N)N)C(=O)N[C@H](C(=O)N[C@@H](CCC(=O)O)C(=O)N[C@@H](CO)C(=O)O)[C@@H](C)O)C(C)C)[C@@H](C)CC)C(C)C)[C@@H](C)CC [LL-37]
630ΔErm Mean Spore Viability ([1]; concentration 20 μg/ml): 5.5% (±7.4%) | 630ΔErm Mean Spore Viability ([1]; concentration 40 μg/ml): 4.0% (±4.0%) | 630ΔErm Mean Spore Viability ([1]; concentration 80 μg/ml): 7.8% (±3.9%) | OIC, minimum inhibition concentration for spore outgrowth [2]: 5 µg/mL | OIC, minimum inhibition concentration for spore outgrowth [3]: 10 µg/mL | hemolytic activity (in words) [4]: significant hemolytic activity | R20291 Mean Spore Viability ([5]; concentration 10 μg/ml): 0.4% (±0.7%) | R20291 Mean Spore Viability ([5]; concentration 20 μg/ml): 1.2% (±0.7%) | R20291 Mean Spore Viability ([5]; concentration 40 μg/ml): 3.6% (±1.8%) | R20291 Mean Spore Viability ([5]; concentration 80 μg/ml): 5.8% (±2.9%)

CN[C@H](CC(C)C)C(=O)N[C@H]1C(=O)N[C@@H](CC(N)=O)C(=O)N[C@H]2C(=O)N[C@H]3C(=O)N[C@H](C(=O)N[C@H](C(=O)O)c4cc(O)cc(O)c4-c4cc3ccc4O)[C@H](O)c3ccc(c(Cl)c3)Oc3cc2cc(c3O[C@@H]2O[C@H](CO)[C@@H](O)[C@H](O)[C@H]2O[C@H]2C[C@](C)(N)[C@H](O)[C@H](C)O2)Oc2ccc(cc2Cl)[C@H]1O [vancomycin]
MIC [6]: 0.25 µg/mL (≈ 0.173 µM) | MIC [7]: > 32 µg/mL | viability at 0.5 µg/mL [5, 8]: 21.1% | viability at 1 µg/mL [5, 8]: 7.7% | viability at 2 µg/mL [5, 8]: 3.4% | viability at 4 µg/mL [5, 8]: 1.3% | viability at 8 µg/mL [5, 8]: 0.9%
